# Test results: paper PMC10293011, “An allosteric pan-TEAD inhibitor blocks oncogenic YAP/TAZ signaling and overcomes KRAS G12C inhibitor resistance” (Nature Cancer, 2023)
# Biological target: T1, TEAD3 (Homo sapiens, UniProt Q99594)
# T1 construct: with YAP peptide (amino acids 50–100)
# Assay: TEAD3–YAP TR-FRET with purified protein (IC50); lipid displacement TR-FRET
# Type: binding
# T1 sequence (Q99594 216-435): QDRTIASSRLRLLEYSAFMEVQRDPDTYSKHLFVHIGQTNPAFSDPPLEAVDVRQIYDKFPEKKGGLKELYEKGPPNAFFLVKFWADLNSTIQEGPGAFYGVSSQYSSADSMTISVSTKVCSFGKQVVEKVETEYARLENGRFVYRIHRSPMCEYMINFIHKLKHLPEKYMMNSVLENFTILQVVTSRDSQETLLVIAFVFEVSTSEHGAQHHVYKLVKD
# T1 sequence (P46937 50-100 partner): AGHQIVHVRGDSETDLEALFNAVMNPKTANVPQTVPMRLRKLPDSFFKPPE
structure (smiles),measurement,value
CCOC(=O)c1cnn2c(=O)cc(-c3ccc(C(F)(F)F)cc3)[nH]c12 [compound 1],IC50,1400 nM
